# Experimental data reported in ChEMBL document CHEMBL4130361, “Synthesis, molecular modeling studies and bronchodilation properties of nicotinonitrile containing-compounds” (Eur J Med Chem, 2017).
# System: Trachea
# Assay: Induction of bronchodilation in guinea pig tracheal rings assessed as reduction in histamine-induced contractions
# Assay type: functional, tissue-based
# Conditions: Cavia porcellus
row,SMILES,IC50
1,CN1CCN(c2nc(-c3ccc(Cl)cc3)cc(-c3ccc(Cl)cc3Cl)c2C#N)CC1,13 µM
2,CCN1CCN(c2nc(-c3ccc(Cl)cc3)cc(-c3ccc(Cl)cc3Cl)c2C#N)CC1,15.8 µM
3,COc1nc2c(c(-c3ccc(Cl)cc3Cl)c1C#N)CCCc1ccccc1-2,10 µM
4,CCOc1nc(-c2ccc(Cl)cc2)cc(-c2ccc(Cl)cc2Cl)c1C#N,9.38 µM
5,N#Cc1c(-c2ccc(Cl)cc2Cl)cc(-c2ccc(Cl)cc2)nc1Br,9.14 µM
6,CCOc1nc2c(c(-c3ccc(Cl)cc3Cl)c1C#N)-c1ccccc1CC2,7.07 µM
7,CCOc1nc2c(c(-c3ccc(Cl)cc3Cl)c1C#N)-c1ccccc1C2,11 µM
8,COc1cc2c(cc1OC)-c1nc(OC)c(C#N)c(-c3ccc(Cl)cc3Cl)c1C2,6.8 µM
9,CCOc1nc(-c2ccc(Br)cc2)cc(-c2ccc(Cl)cc2Cl)c1C#N,12.4 µM
10,Cn1c(=O)c2nc[nH]c2n(C)c1=O [THEOPHYLLINE],11.6 µM
11,COc1nc2c(c(-c3ccc(Cl)cc3Cl)c1C#N)-c1ccccc1CC2,6.36 µM
12,COc1nc2c(c(-c3ccc(Cl)cc3Cl)c1C#N)-c1ccccc1C2,9.11 µM
13,N#Cc1c(-c2ccc(Cl)cc2Cl)cc(-c2ccc(Cl)cc2)nc1N1CCCCC1,7.83 µM
14,N#Cc1c(-c2ccc(Cl)cc2Cl)cc(-c2ccc(Cl)cc2)nc1N1CCOCC1,6.71 µM
15,COc1nc2c(c(-c3ccc(Cl)cc3Cl)c1C#N)CSc1ccccc1-2,11 µM
16,CCOc1nc2c(c(-c3ccc(Cl)cc3Cl)c1C#N)CCCc1ccccc1-2,13 µM
17,COc1nc2c(c(-c3ccc(Cl)cc3Cl)c1C#N)COc1ccccc1-2,6.11 µM
18,CCOc1nc(-c2cccs2)cc(-c2ccc(Cl)cc2Cl)c1C#N,8.71 µM

# The next lines start with the values.
row,IC50,SMILES
1,11.8 µM,COc1nc(-c2ccncc2)cc(-c2ccc(Cl)cc2Cl)c1C#N
2,9.89 µM,COc1ccc(-c2cc(-c3ccc(Cl)cc3Cl)c(C#N)c(OC)n2)cc1
3,10.6 µM,COc1nc(-c2ccc(C)cc2)cc(-c2ccc(Cl)cc2Cl)c1C#N
4,5.34 µM,COc1nc(-c2ccccc2)cc(-c2ccc(Cl)cc2Cl)c1C#N
5,8.02 µM,CCOc1nc(-c2ccc(F)cc2)cc(-c2ccc(Cl)cc2Cl)c1C#N
6,8.02 µM,COc1nc(-c2ccc(Br)cc2)cc(-c2ccc(Cl)cc2Cl)c1C#N
7,9.4 µM,COc1nc(-c2ccc3ccccc3c2)cc(-c2ccc(Cl)cc2Cl)c1C#N
8,17.1 µM,COc1nc(-c2cccnc2)cc(-c2ccc(Cl)cc2Cl)c1C#N
9,3.28 µM,COc1nc(-c2cccs2)cc(-c2ccc(Cl)cc2Cl)c1C#N
10,7.55 µM,COc1nc(-c2ccc(Cl)cc2)cc(-c2ccc(Cl)cc2Cl)c1C#N
11,7.43 µM,COc1nc(-c2ccc(F)cc2)cc(-c2ccc(Cl)cc2Cl)c1C#N
12,7.91 µM,COc1ccc(-c2cc(-c3ccc(Cl)cc3Cl)c(C#N)c(OC)n2)cc1OC

# System: Trachea
# Assay: Potency index, ratio of theophylline IC50 to test compound IC50 for reduction in histamine-induced contractions in guinea pig tracheal rings
# Assay type: functional, Cavia porcellus
# Conditions: not given
row,SMILES,Ratio IC50
1,COc1nc(-c2ccccc2)cc(-c2ccc(Cl)cc2Cl)c1C#N,2
